Experimental data published in ChEMBL document CHEMBL1135198, “Structure-activity relationships of non-imidazole H(3) receptor ligands. Part 1” (Bioorg Med Chem Lett, 2002).

Key:
Histamine H1 receptor = Histamine H1 receptor (Homo sapiens, UniProt P35367); assay: Binding affinity for the human Histamine H1 Receptor
Histamine H3 receptor = Histamine H3 receptor (Rattus norvegicus, UniProt Q9QYN8); assay: Binding affinity for the rat cortical Histamine H3 receptor
Histamine H2 receptor = Histamine H2 receptor (Homo sapiens, UniProt P25021); assay: Binding affinity for the human Histamine H2 receptor
Sequence of Histamine H2 receptor (P25021 whole entry): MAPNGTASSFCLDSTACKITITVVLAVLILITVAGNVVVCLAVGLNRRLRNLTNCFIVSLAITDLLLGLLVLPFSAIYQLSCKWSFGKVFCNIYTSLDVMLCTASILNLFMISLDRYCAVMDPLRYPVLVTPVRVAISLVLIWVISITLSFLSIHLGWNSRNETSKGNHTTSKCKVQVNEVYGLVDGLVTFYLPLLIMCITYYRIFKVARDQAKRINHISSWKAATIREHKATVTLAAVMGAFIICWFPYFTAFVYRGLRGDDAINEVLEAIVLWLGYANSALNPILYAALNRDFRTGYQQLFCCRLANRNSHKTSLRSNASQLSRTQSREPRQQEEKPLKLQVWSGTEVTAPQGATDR

Sequence of Histamine H1 receptor (P35367 whole entry): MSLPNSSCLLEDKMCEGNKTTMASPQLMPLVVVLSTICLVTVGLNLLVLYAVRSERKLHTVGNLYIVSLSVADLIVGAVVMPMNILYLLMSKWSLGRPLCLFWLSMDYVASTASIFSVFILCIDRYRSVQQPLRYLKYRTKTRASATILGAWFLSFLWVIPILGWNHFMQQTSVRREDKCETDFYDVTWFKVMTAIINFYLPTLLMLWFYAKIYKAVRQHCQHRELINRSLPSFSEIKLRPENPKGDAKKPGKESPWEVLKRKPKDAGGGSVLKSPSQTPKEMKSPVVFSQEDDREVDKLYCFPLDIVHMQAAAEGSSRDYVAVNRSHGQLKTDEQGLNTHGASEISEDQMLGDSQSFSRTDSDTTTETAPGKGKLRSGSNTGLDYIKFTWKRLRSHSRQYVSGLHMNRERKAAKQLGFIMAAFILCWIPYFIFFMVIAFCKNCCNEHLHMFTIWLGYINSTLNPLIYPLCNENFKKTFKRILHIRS
Sequence of Histamine H3 receptor (Q9QYN8 whole entry): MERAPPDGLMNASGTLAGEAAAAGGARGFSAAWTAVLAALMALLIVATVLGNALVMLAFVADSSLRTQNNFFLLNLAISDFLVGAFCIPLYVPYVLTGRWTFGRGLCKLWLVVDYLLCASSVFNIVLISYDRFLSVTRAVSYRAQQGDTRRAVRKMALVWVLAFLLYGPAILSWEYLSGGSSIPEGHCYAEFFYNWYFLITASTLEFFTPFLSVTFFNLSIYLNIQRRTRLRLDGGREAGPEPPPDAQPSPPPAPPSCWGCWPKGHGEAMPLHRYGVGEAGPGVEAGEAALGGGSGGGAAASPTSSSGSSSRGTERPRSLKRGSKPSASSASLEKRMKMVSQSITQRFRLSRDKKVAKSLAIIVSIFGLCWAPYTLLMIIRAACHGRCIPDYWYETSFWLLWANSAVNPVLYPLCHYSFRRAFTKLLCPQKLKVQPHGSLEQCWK

Row | Structure (SMILES) | Ki (Histamine H1 receptor) [nM] | Ki (Histamine H3 receptor) [nM] | Ki (Histamine H2 receptor) [nM]
1 | CCCCCC(=O)c1ccc(OCCCN2CCN(CC3CC3)CC2)cc1 | 2240 | 15.8 | 18600
2 | CCCCCC(=O)c1ccc(OCCCN2CCN(C(=O)OC)CC2)cc1 | 1070 | 3.02 | 12000
3 | CCOC(=O)N1CCN(CCCOc2ccc(C(=O)C=C(C)C)cc2)CC1 | 355 | 38.9 | 21900
4 | CCCCCC(=O)c1ccc(OCCCN2CCN(C(=O)OCC(C)C)CC2)cc1 | 275 | 10 | 3720
5 | CCOC(=O)N1CCN(CCCOc2ccc(C(=O)/C=C/c3ccc(OC)cc3)cc2)CC1 | 617 | 7.24 | 6760
6 | CCCCCC(=O)c1ccc(OCCCN2CCN(C(=O)c3cnccn3)CC2)cc1 | 2040 | 18.2 | 46800
7 | CCCCCC(=O)c1ccc(OCCCN2CCN(S(=O)(=O)c3ccc(C#N)cc3)CC2)cc1 | 13500 | 37.2 | 12300
8 | CCCCCC(=O)c1ccc(OCCCN2CCN(C(=O)N3CCOCC3)CC2)cc1 | 4170 | 5.89 | 17800
9 | CCOC(=O)N1CCN(CCCOc2ccc(C(=O)c3ccc(F)cc3)cc2)CC1 | 209 | 67.6 | 42700
10 | CCCCCC(=O)c1ccc(OCCCN2CCN(C(=O)CC)CC2)cc1 | 1910 | 3.16 | 31600
11 | CCCCCC(=O)c1ccc(OCCCN2CCN(C(=O)c3ccc(C)s3)CC2)cc1 | 97.7 | 15.8 | 8130
12 | CCCCCC(=O)c1ccc(OCCCN2CCN(C(=O)c3ccco3)CC2)cc1 | 398 | 10.5 | 20000
13 | CCCCCCCC(=O)c1ccc(OCCCN2CCN(C(=O)OCC)CC2)cc1 | 562 | 3.72 | 2140
14 | CCCCCC(=O)c1ccc(OCCCC2CCNCC2)cc1 | – | 58900 | –
15 | CCOC(=O)N1CCN(CCCOc2ccc(C(=O)c3ccc(OC)cc3)cc2)CC1 | 813 | 39.8 | 8320
16 | CCCCCC(=O)c1ccc(OCCCN2CCN(C(=O)C3CCC3)CC2)cc1 | 355 | 3.16 | 10200
17 | CCCCCC(=O)c1ccc(OCCCN2CCN(C(=O)CCC)CC2)cc1 | 871 | 6.46 | 22900
18 | CCOC(=O)N1CCN(CCCOc2ccc(C(=O)C3CCCCC3)cc2)CC1 | 603 | 25.1 | 7940
19 | CCCCCC(=O)c1ccc(OCCCN2CCN(C(=O)c3ccccn3)CC2)cc1 | 417 | 52.5 | 18600
20 | CCCCCC(=O)c1ccc(OCCCN2CCN(Cc3nccs3)CC2)cc1 | 60.3 | 16.6 | 7080

Row | Structure (SMILES) | Ki (Histamine H1 receptor) [nM] | Ki (Histamine H3 receptor) [nM] | Ki (Histamine H2 receptor) [nM]
21 | CCCCCC(=O)c1ccc(OCCCN2CCN(C(=O)NCC)CC2)cc1 | 1580 | 21.4 | 23400
22 | CCOC(=O)N1CCN(CCCOc2ccc(C(=O)CC(C)C)cc2)CC1 | 933 | 7.24 | 69200
23 | CCCCCC(=O)c1ccc(OCCCN2CCN(C(=O)c3occc3C)CC2)cc1 | 105 | 8.51 | 12900
24 | CCCCCC(=O)c1ccc(OCCCN2CCN(C(=O)OCC)CC2)cc1 | 275 | 1.38 | 12600
25 | CCOC(=O)N1CCN(CCCOc2ccc(C(C)=O)cc2)CC1 | 2240 | 5.01 | 39800
26 | CCCCCC(=O)c1ccc(OCCCN2CCN(C(=O)C(C)C)CC2)cc1 | 3980 | – | 29500
27 | CCCCCC(=O)c1ccc(OCCCN2CCNCC2)cc1 | 6030 | 26.9 | 14500
28 | CCOC(=O)N1CCN(CCCOc2ccc(C(=O)c3ccc(SC)cc3)cc2)CC1 | 447 | 58.9 | 6170
29 | CCOC(=O)N1CCN(CCCOc2ccc(C(=O)c3cccc(C)c3)cc2)CC1 | 380 | 288 | 3720
30 | CCCCCC(=O)c1ccc(OCCCN2CCN(C(=O)c3cnco3)CC2)cc1 | 4270 | 44.7 | 27500
31 | CCCCCC(=O)c1ccc(OCCCN2CCN(CCC)CC2)cc1 | 3390 | 27.5 | 27500
32 | CCCCCC(=O)c1ccc(OCCCN2CCN(CCCC)CC2)cc1 | 661 | 13.5 | 7590
33 | CCOC(=O)N1CCN(CCCOc2ccc(C(=O)/C=C/c3cccnc3)cc2)CC1 | 427 | 6.31 | 25100
34 | CCCCCC(=O)c1ccc(OCCCN2CCCCC2)cc1 | – | 63.1 | –
35 | CCCCCC(=O)c1ccc(OCCCN2CCN(C(=O)OC(C)C)CC2)cc1 | 309 | 5.01 | 17800
36 | CCOC(=O)N1CCN(CCCOc2ccc(C(=O)c3ccc(C(C)(C)C)cc3)cc2)CC1 | 562 | 13.2 | 1550
37 | CCCCCC(=O)c1ccc(OCCCN2CCN(C(=O)c3ccncc3)CC2)cc1 | 479 | 6.31 | 22400
38 | CCCCCC(=O)c1ccc(OCCCN2CCN(CC(C)C)CC2)cc1 | 457 | 9.33 | 9550
39 | CCCCCC(=O)c1ccc(OCCCN2CCN(C(=O)c3c[nH]cn3)CC2)cc1 | 525 | 4.47 | 19500
40 | CCCCCC(=O)c1ccc(OCCCN2CCN(C(=O)c3cccnc3)CC2)cc1 | 724 | 20.4 | 60300

Row | Structure (SMILES) | Ki (Histamine H1 receptor) [nM] | Ki (Histamine H3 receptor) [nM] | Ki (Histamine H2 receptor) [nM]
41 | CCOC(=O)N1CCN(CCCOc2ccc(C(=O)c3cccc(F)c3F)cc2)CC1 | 1020 | 25.1 | 17400
42 | CCCCCC(=O)c1ccc(OCCCN2CCN(C(=O)c3ccccc3)CC2)cc1 | 288 | 36.3 | 12300
43 | CCCCCC(=O)c1ccc(OCCCN2CCN(S(=O)(=O)C(C)C)CC2)cc1 | 11200 | 12.6 | 20900
44 | CCCCCC(=O)c1ccc(OCCCN2CCN(C(=O)NC(C)C)CC2)cc1 | 1200 | 9.55 | 11200
45 | C=C(C)C(=O)c1ccc(OCCCN2CCN(C(=O)OCC)CC2)cc1 | 977 | 55 | 22400
46 | CCCCCC(=O)c1ccc(OCCCN2CCN(S(C)(=O)=O)CC2)cc1 | 26300 | 21.4 | 83200
47 | CCCCCCCCC(=O)c1ccc(OCCCN2CCN(C(=O)OCC)CC2)cc1 | 501 | 7.94 | 2690
48 | CCCCCC(=O)c1ccc(OCCCN2CCN(C(=O)CSCC)CC2)cc1 | 1100 | 11 | 22900
49 | CCCCCC(=O)c1ccc(OCCCN2CCN(C(=O)c3cccs3)CC2)cc1 | 74.1 | 16.2 | 14800
50 | CCCCCC(=O)c1ccc(OCCCN2CCN(C(=O)c3cccn3C)CC2)cc1 | 56.2 | 4.07 | 11700
51 | CCCCCC(=O)c1ccc(OCCCN2CCN(C(=O)C(C)(C)O)CC2)cc1 | 21400 | 57.5 | 24500
52 | CCCC(=O)c1ccc(OCCCN2CCN(C(=O)OCC)CC2)cc1 | 741 | 3.63 | 22400
53 | CCCCCC(=O)c1ccc(OCCCN2CCN(C(=O)c3sccc3Cl)CC2)cc1 | 79.4 | 29.5 | 19500
54 | CCCCCC(=O)c1ccc(OCCCN2CCN(C(=O)Cc3ccccc3)CC2)cc1 | 56.2 | 10 | 8910
55 | CCOC(=O)N1CCN(CCCOc2ccc(C(=O)Cc3ccccc3)cc2)CC1 | 933 | 69.2 | 12600
56 | CCCCCC(=O)c1ccc(OCCCN2CCN(C(=O)C3CC3)CC2)cc1 | 1780 | 2.14 | 31600
57 | CCCCCC(=O)c1ccc(OCCCN2CCN(C(=O)N3CCCC3)CC2)cc1 | 1050 | 7.41 | 14800
58 | CCOC(=O)N1CCN(CCCOc2ccc(C(=O)C3CC3)cc2)CC1 | 1410 | 4.68 | 79400
